Experimental data taken from ChEMBL document CHEMBL2440076, “New triarylpyrazoles as broad-spectrum anticancer agents: design, synthesis, and biological evaluation” (Eur J Med Chem, 2013).

Assays:
786-0 = assay: Growth inhibition of human 786-0 cells after 48 hrs by sulforhodamine B assay; assay type: functional; settings: 786-0, 48 h
OVCAR-8 = assay: Growth inhibition of human OVCAR8 cells after 48 hrs by sulforhodamine B assay; assay type: functional; settings: OVCAR-8, 48 h
MDA-MB-231 = assay: Growth inhibition of human MDA-MB-231 cells assessed as cell growth at 10 uM after 48 hrs by sulforhodamine B assay; assay type: functional; settings: MDA-MB-231, 48 h, read-out: Activity
HOP-62 = assay: Growth inhibition of human HOP62 cells after 48 hrs by sulforhodamine B assay; assay type: functional; settings: HOP-62, 48 h
U-251 = assay: Growth inhibition of human U251 cells after 48 hrs by sulforhodamine B assay; assay type: functional; settings: U-251, 48 h
SF-295 = assay: Growth inhibition of human SF295 cells after 48 hrs by sulforhodamine B assay; assay type: functional, cell-based; settings: SF-295, 48 h
SK-OV-3 = assay: Growth inhibition of human SKOV3 cells after 48 hrs by sulforhodamine B assay; assay type: functional; settings: SK-OV-3, 48 h
NCI-H23 = assay: Growth inhibition of human NCI-H23 cells assessed as cell growth at 10 uM after 48 hrs by sulforhodamine B assay; assay type: functional; settings: NCI-H23, 48 h, read-out: Activity
IGROV-1 = assay: Growth inhibition of human IGROV1 cells after 48 hrs by sulforhodamine B assay; assay type: functional; settings: IGROV-1, 48 h
HCT-116 = assay: Growth inhibition of human HCT116 cells assessed as cell growth at 10 uM after 48 hrs by sulforhodamine B assay; assay type: functional; settings: HCT-116, 48 h, read-out: Activity
DU-145 = assay: Growth inhibition of human DU145 cells assessed as cell growth at 10 uM after 48 hrs by sulforhodamine B assay; assay type: functional; settings: DU-145, 48 h, read-out: Activity
SR = assay: Growth inhibition of human SR cells after 48 hrs by sulforhodamine B assay; assay type: functional
UACC-257 = assay: Growth inhibition of human UACC257 cells assessed as cell growth at 10 uM after 48 hrs by sulforhodamine B assay; assay type: functional; settings: UACC-257, 48 h, read-out: Activity
KM12 = assay: Growth inhibition of human KM12 cells assessed as cell growth at 10 uM after 48 hrs by sulforhodamine B assay; assay type: functional; settings: KM12, 48 h, read-out: Activity
M14 = assay: Growth inhibition of human M14 cells after 48 hrs by sulforhodamine B assay; assay type: functional; settings: M14, 48 h
UACC-62 = assay: Growth inhibition of human UACC62 cells after 48 hrs by sulforhodamine B assay; assay type: functional; settings: UACC-62, 48 h
NCI-H522 = assay: Growth inhibition of human NCI-H522 cells after 48 hrs by sulforhodamine B assay; assay type: functional; settings: NCI-H522, 48 h
MOLT-4 [1] = assay: Growth inhibition of human MOLT4 cells assessed as cell growth at 10 uM after 48 hrs by sulforhodamine B assay; assay type: functional; settings: MOLT-4, 48 h, read-out: Activity
HL-60(TB) = assay: Growth inhibition of human HL-60(TB) cells after 48 hrs by sulforhodamine B assay; assay type: functional; settings: HL-60, 48 h
COLO 205 = assay: Growth inhibition of human COLO205 cells assessed as cell growth at 10 uM after 48 hrs by sulforhodamine B assay; assay type: functional; settings: COLO 205, 48 h, read-out: Activity
MDA-MB-468 = assay: Growth inhibition of human MDA-MB-468 cells assessed as cell growth at 10 uM after 48 hrs by sulforhodamine B assay; assay type: functional; settings: MDA-MB-468, 48 h, read-out: Activity
K562 = assay: Growth inhibition of human K562 cells assessed as cell growth at 10 uM after 48 hrs by sulforhodamine B assay; assay type: functional; settings: K562, 48 h, read-out: Activity
SF-268 = assay: Growth inhibition of human SF268 cells after 48 hrs by sulforhodamine B assay; assay type: functional; settings: SF-268, 48 h
BT-549 = assay: Growth inhibition of human BT549 cells assessed as cell growth at 10 uM after 48 hrs by sulforhodamine B assay; assay type: functional; settings: BT-549, 48 h, read-out: Activity
ACHN = assay: Growth inhibition of human ACHN cells after 48 hrs by sulforhodamine B assay; assay type: functional
SK-MEL-28 = assay: Growth inhibition of human SK-MEL-28 cells after 48 hrs by sulforhodamine B assay; assay type: functional; settings: SK-MEL-28, 48 h
MDA-MB-435 = assay: Growth inhibition of human MDA-MB-435 cells assessed as cell growth at 10 uM after 48 hrs by sulforhodamine B assay; assay type: functional; settings: MDA-MB-435, 48 h, read-out: Activity
SK-MEL-2 = assay: Growth inhibition of human SK-MEL-2 cells after 48 hrs by sulforhodamine B assay; assay type: functional; settings: SK-MEL-2, 48 h
[2] = Growth inhibition of human Hs 578T cells assessed as cell growth at 10 uM after 48 hrs by sulforhodamine B assay; assay type: functional; settings: read-out: Activity
HT-29 = assay: Growth inhibition of human HT-29 cells assessed as cell growth at 10 uM after 48 hrs by sulforhodamine B assay; assay type: functional; settings: HT-29, 48 h, read-out: Activity
MOLT-4 [3] = assay: Growth inhibition of human MOLT4 cells after 48 hrs by sulforhodamine B assay; assay type: functional; settings: MOLT-4, 48 h
TK-10 = assay: Growth inhibition of human TK10 cells assessed as cell growth at 10 uM after 48 hrs by sulforhodamine B assay; assay type: functional; settings: TK-10, 48 h, read-out: Activity
NCI-H226 = assay: Growth inhibition of human NCI-H226 cells assessed as cell growth at 10 uM after 48 hrs by sulforhodamine B assay; assay type: functional; settings: NCI-H226, 48 h, read-out: Activity
SN12C = assay: Growth inhibition of human SN12C cells after 48 hrs by sulforhodamine B assay; assay type: functional
[4] = read-out: LC50 (the source's name)

For `COc1cc(-c2nn(-c3cccc(NC(=O)Nc4ccc(Cl)c(C(F)(F)F)c4)c3)cc2-c2ccncc2)ccc1Cl`, the GI50 (786-0) was 1.61 µM, the TGI (786-0) was 8.02 µM and the CC50 (786-0; [4]) was greater than 32.5 µM. It also gave a GI50 (OVCAR-8) of 1.05 µM, a TGI (OVCAR-8) of 5.87 µM and a CC50 (OVCAR-8; [4]) greater than 32.5 µM. For the same compound, the growth at 10 µM (MDA-MB-231) was -52.4%, the GI50 (HOP-62) was 1.31 µM and the TGI (HOP-62) was 6.49 µM. It also gave a CC50 (HOP-62; [4]) of 31 µM, a GI50 (U-251) of 0.985 µM and an LC50 (concentration killing 50% of cells) (U-251) of 24.7 µM. It also gave a TGI (U-251) of 4.18 µM, a GI50 (SF-295) of 0.84 µM and an IC50 (SF-295) of 0.84 µM. It also gave a TGI (SF-295) of 2.54 µM, a CC50 (SF-295; [4]) of 14.9 µM and a GI50 (SK-OV-3) of 1.45 µM. For the same compound, the TGI (SK-OV-3) was 13 µM, the CC50 (SK-OV-3; [4]) was greater than 32.5 µM and the growth at 10 µM (NCI-H23) was 5.69%. It also gave a GI50 (IGROV-1) of 1.2 µM, an LC50 (concentration killing 50% of cells) (IGROV-1) greater than 32.5 µM and a TGI (IGROV-1) of 4.22 µM. The growth at 10 µM (HCT-116) was 5.3%, the growth at 10 µM (DU-145) was 20.3% and the GI50 (SR) was 0.884 µM. The TGI (SR) was 2.48 µM, the CC50 (SR; [4]) was greater than 32.5 µM and the growth at 10 µM (UACC-257) was -37.6%. For the same compound, the growth at 10 µM (KM12) was 2.88%, the GI50 (M14) was 1.08 µM and the LC50 (concentration killing 50% of cells) (M14) was 19.1 µM. It also gave a TGI (M14) of 3.71 µM, a GI50 (UACC-62) of 0.737 µM and an LC50 (50% lethal concentration) (UACC-62) of 11.6 µM. The TGI (UACC-62) was 2.09 µM, the GI50 (NCI-H522) was 1.14 µM and the LC50 (concentration killing 50% of cells) (NCI-H522) was greater than 32.5 µM. It also gave a TGI (NCI-H522) of 6.06 µM, a growth at 10 µM (MOLT-4 [1]) of -2.38% and a GI50 (HL-60(TB)) of 1.17 µM. The TGI (HL-60(TB)) was greater than 32.5 µM, the CC50 (HL-60(TB); [4]) was greater than 32.5 µM and the growth at 10 µM (COLO 205) was -91.6%. The growth at 10 µM (MDA-MB-468) was -7.22%, the growth at 10 µM (K562) was 3.8% and the GI50 (SF-268) was 1.46 µM. The TGI (SF-268) was 9.14 µM, the CC50 (SF-268; [4]) was greater than 32.5 µM and the growth at 10 µM (BT-549) was 7.16%. For the same compound, the GI50 (ACHN) was 1.1 µM, the TGI (ACHN) was 15.6 µM and the CC50 (ACHN; [4]) was greater than 32.5 µM. It also gave a GI50 (SK-MEL-28) of 1.2 µM, an LC50 (SK-MEL-28) of 19.1 µM and a TGI (SK-MEL-28) of 5.01 µM. For the same compound, the growth at 10 µM (MDA-MB-435) was -52.3%, the GI50 (SK-MEL-2) was 1.01 µM and the LC50 (50% lethal concentration) (SK-MEL-2) was 17.5 µM. For the same compound, the TGI (SK-MEL-2) was 2.58 µM, the growth at 10 µM [2] was 2.21% and the growth at 10 µM (HT-29) was -0.5%. The GI50 (MOLT-4 [3]) was 1.02 µM, the TGI (MOLT-4 [3]) was 7.96 µM and the CC50 (MOLT-4 [3]; [4]) was greater than 32.5 µM. The growth at 10 µM (TK-10) was 12.6%, the growth at 10 µM (NCI-H226) was 12.1% and the GI50 (SN12C) was 1.14 µM. It also gave a TGI (SN12C) of 9.23 µM and a CC50 (SN12C; [4]) greater than 32.5 µM.
